Among the data in patent publication US12240851B1, “Pyrido[3′,4′:4,5]pyrrolo[3,2-c]naphthyridine compounds as CK2 inhibitors” (KING FAISAL UNIVERSITY, priority 2023, dated 2025) are IC50 values, retold here.

One experiment has as its system PC3 (prostate). Put plainly: In vitro cytotoxic activity assay (MTT), PC3. Format: cell-based. The note with it: Homo sapiens, 96 hours exposure, read-out: IC50, 50% inhibition of cell proliferation. The method, then: (§1) Compounds 1-15 were screened for their in vitro cytotoxic activity utilizing a 3-(4,5-dimethyl-thiazol-2-yl)-2,5-diphenyltetrazolium bromide (MTT) assay against selected cancer human cell lines consisting of PC3 (prostate), HCT116 (colon), A375 (melanoma), H1299 (lung), MIAPaCa-2 (pancreas), HL60 (leukemia), MCF7 (breast), MDA-MB-231 (breast) (T. Mosmann, J. Immunol. Meth., 1983, 65, 55-63). The cells were cultured at 37° C. in RMPI1640 medium supplemented with 10% fetal bovine serum, 50 IU/mL penicillin, and 50 µg/mL streptomycin in a 5% CO2 incubator. All cells were sub-cultured 3 times/week by trypsinisation. Viable cells were seeded and allowed to adhere for 12 h before a test drug was added in 96-well plates at an initial density of 1.0×10^5 cells/mL. Tumour cell lines were separately exposed to various concentrations of the tested compounds followed by incubation at a temperature of 37° C. during 96 h inside a medium of fresh RMPI 1640. Cells were subsequently incubated at 37° C. using MTT at 0.5 mg/mL during 4 h. After removal of supernatant, formazan crystals were dissolved in isopropanol and the optical density was measured at 570 nm. CX-4945 was used as a positive control.

For a further experiment, the system named is HL60 (leukemia). Description: In vitro cytotoxic activity assay (MTT), HL60. Format: cell-based. Particulars: Homo sapiens, HL-60, 96 hours exposure, read-out: IC50, 50% inhibition of cell proliferation. The method, then: as §1
A further experiment has as its system MDA-MB-231 (breast). Put plainly: In vitro cytotoxic activity assay (MTT), MDA-MB-231. Format: cell-based. Particulars: Homo sapiens, 96 hours exposure, read-out: IC50, 50% inhibition of cell proliferation. The method, then:
as §1

A further experiment relates to MCF7 (breast). Description: In vitro cytotoxic activity assay (MTT), MCF7. Format: cell-based. The note with it: Homo sapiens, 96 hours exposure, read-out: IC50, 50% inhibition of cell proliferation. The method, then:
as §1

In another experiment the test system is HCT116 (colon). Description: In vitro cytotoxic activity assay (MTT), HCT116. The format is cell-based. Particulars: Homo sapiens, HCT-116, 96 hours exposure, read-out: IC50, 50% inhibition of cell proliferation. The method, then:
as §1

In experiment [1] the target is T1, recombinant human CK2 (RRββ-holoenzyme) (Homo sapiens, UniProt P68400).
T1 construct: purchased Millipore
Description: CK2 Kinase Assay (33P-ATP, filter plate). The format is biochemical. Particulars: final ATP concentration 15 μM, 10 min at 30° C.; read-out: protein kinase CK2 IC50. The method, then:
CK2 Kinase Assay was conducted using the protocol as described in Pierre F. et al; J. Med. Chem. 2011, 54, 635-654. The tested compounds in aqueous solution were added at a volume of 10 μL to a reaction mixture comprising 10 μL of assay dilution buffer (ADB; 20 mM MOPS, pH 7.2, 25 mM β-glycerol phosphate, 5 mM EGTA, 1 mM sodium orthovanadate, and 1 mM dithiothreitol), 10 μL of substrate peptide (RRRDDDSDDD, dissolved in ADB at a concentration of 1 mM), 10 μL of recombinant human CK2 (RRββ-holoenzyme, 25 ng dissolved in ADB; Millipore). Reactions were initiated by the addition of 10 μL of ATP solution (90% 75 mMMgCl2, 75 μM ATP (final ATP concentration:15 μM) dissolved in ADB; 10% [γ-33P] ATP (stock 1mCi/100 μL; 3000 Ci/mmol (Perkin-Elmer) and maintained for 10 min at 30° C. The reactions were quenched with 100 μL of 0.75% phosphoric acid and then transferred to and filtered through a phosphor cellulose filter plate (Millipore). After washing each well five times with 0.75% phosphoric acid, the plate was dried under vacuum for 5 min and, following the addition of 15 μL of scintillation fluid to each well, the residual radioactivity was measured using a Wallac […]. The IC50 values were derived from eight concentrations of test inhibitors.

Another experiment deals with A375 (melanoma). Put plainly: In vitro cytotoxic activity assay (MTT), A375. Format: cell-based. Particulars: Homo sapiens, A-375, 96 hours exposure, read-out: IC50, 50% inhibition of cell proliferation. The method, then: as §1
A further experiment deals with H1299 (lung). Description: In vitro cytotoxic activity assay (MTT), H1299. The format is cell-based. Particulars: Homo sapiens, NCI-H1299, 96 hours exposure, read-out: IC50, 50% inhibition of cell proliferation. The method, then: as §1
For the next experiment, the system named is MIAPaCa-2 (pancreas). Description: In vitro cytotoxic activity assay (MTT), MIAPaCa-2. Format: cell-based. Particulars: Homo sapiens, MIA PaCa-2, 96 hours exposure, read-out: IC50, 50% inhibition of cell proliferation. The method, then:
as §1

T1 sequence (P68400 whole entry): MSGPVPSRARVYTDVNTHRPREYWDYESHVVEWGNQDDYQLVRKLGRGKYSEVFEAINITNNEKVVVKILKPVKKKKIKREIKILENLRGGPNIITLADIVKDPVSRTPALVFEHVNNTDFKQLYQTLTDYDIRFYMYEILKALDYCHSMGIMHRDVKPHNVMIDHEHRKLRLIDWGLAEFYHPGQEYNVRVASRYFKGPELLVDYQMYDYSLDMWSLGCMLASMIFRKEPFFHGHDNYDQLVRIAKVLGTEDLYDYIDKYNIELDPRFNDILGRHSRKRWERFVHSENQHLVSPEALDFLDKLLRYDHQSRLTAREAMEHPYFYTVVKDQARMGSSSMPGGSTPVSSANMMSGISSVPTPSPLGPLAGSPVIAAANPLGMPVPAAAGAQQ
T1 sequence (P67870 whole entry partner): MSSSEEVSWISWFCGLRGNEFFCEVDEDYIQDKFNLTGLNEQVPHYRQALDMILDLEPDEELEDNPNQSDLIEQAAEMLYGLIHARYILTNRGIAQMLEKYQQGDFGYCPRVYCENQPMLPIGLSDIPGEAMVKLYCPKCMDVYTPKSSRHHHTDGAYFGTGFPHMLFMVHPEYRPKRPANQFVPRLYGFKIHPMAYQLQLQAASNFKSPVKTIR

On to `Clc1cccc(Nc2nc3c4cnccc4[nH]c3c3cnccc23)c1` [Compound (1), N-(3-chlorophenyl)-11H-pyrido[3′,4′:4,5]pyrrolo[3,2-c][2,6]naphthyridin-5-amine], for which the IC50 was found to be 800 nM in the experiment with PC3 (prostate); 3200 nM in the experiment on HL60 (leukemia); 2900 nM in the experiment with MDA-MB-231 (breast); 2500 nM in the experiment on MCF7 (breast); 1500 nM in the experiment with HCT116 (colon); 21 nM in experiment [1]. For the same compound, the IC50 came out at 4000 nM in the experiment with A375 (melanoma), 1100 nM in the experiment on H1299 (lung) and 1400 nM with MIAPaCa-2 (pancreas).
